In series [1] the target is T1, ITK (Homo sapiens, UniProt Q08881).
T1 sequence (Q08881 1-620): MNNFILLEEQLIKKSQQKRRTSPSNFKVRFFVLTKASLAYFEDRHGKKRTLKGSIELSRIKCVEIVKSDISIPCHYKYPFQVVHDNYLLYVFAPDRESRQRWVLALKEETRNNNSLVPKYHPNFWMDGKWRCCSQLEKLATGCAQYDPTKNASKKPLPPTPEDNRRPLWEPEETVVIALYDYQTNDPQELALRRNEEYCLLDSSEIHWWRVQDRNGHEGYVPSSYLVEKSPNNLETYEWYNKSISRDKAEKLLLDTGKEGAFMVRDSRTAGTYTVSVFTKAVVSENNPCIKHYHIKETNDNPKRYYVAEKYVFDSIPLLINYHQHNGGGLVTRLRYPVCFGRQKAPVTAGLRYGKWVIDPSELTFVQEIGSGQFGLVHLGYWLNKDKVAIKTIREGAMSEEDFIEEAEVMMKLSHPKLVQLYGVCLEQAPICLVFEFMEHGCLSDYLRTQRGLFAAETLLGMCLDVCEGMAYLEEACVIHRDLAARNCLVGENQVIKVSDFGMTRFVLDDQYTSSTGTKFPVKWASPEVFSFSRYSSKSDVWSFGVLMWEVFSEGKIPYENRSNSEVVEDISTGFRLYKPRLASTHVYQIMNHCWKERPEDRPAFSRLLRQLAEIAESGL
In words: Dialysis assay. In kind it is biochemical. The conditions noted are these: 24 h dialysis. As to the method: Dialysis was performed at room temperature against the same buffer for 24 hours in a Slide-A-Lyzer dialysis device (10 kDa MWCO) with three changes of the dialysis buffer giving a nominal final dialysis factor of 8×10^6. Un-dialyzed control samples incubated in parallel for 24 hours. ITK activity was measured following dialysis in a continuous sampling format using the microfluidic assay and 300 μM ATP and 2 μM Scrtide peptide substrate. The enzymatic velocity of treated samples was normalized to the appropriate control rate and expressed as a percent.

The target in series [2] is Fyn (Homo sapiens, UniProt P06241). In words: Human kinome profiling at 1.0 μM, Fyn. It is filed as biochemical. Particulars: read-out: percent control, Fyn.
Sequence of Fyn (P06241 whole entry): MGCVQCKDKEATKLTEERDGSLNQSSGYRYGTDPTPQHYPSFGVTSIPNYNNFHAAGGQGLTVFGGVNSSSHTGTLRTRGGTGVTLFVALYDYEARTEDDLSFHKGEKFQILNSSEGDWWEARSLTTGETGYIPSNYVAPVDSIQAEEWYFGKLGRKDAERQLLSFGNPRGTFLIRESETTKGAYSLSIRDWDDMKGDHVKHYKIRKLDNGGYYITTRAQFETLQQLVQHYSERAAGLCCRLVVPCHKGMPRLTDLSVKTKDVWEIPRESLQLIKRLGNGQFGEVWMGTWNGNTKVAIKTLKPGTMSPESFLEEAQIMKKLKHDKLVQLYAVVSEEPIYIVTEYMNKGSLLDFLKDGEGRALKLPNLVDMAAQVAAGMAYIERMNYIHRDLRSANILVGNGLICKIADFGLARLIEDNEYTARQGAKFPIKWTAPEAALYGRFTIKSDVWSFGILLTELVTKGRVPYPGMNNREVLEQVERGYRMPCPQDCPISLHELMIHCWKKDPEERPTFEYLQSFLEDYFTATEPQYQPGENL
Series [3] has as its system human T cells (PBMC). As to the kind of experiment: T cell activation, Th1 skewing, cell number and viability. In kind it is cell-based. As to the method:
Fresh PBMCs from healthy human donors were centrifuged and reconstituted at 0.312×10^6 cells/mL in RPMI 1640 medium+10% heat-inactivated FBS+1× penicillin streptomycin and 100,000 cells/well were distributed into 24 well tissue culture plate. Cells were incubated at 37° C. for 1 hour, followed by the addition of CPI 596 or vehicle. The cells were then incubated at 37° C. for 1 hour, followed by the addition of […] anti CD3 and anti CD28 (both eBioscience). Cells were incubated at 37° C. for 6 days, with supplemental media supplied on day 3. On Day 6, the cells were transferred to a 96 deep well plate, washed, and treated with 50 nM phorbol 12-myristate 13-acetate, 1 μg/mL ionomycin, and 1 μg/mL brefeldin A, and then incubated at 37° C. for 4 hours. The cells were then fixed and permeabilized using eBioscience Fox3/transcription factor staining buffer. Cells were treated with Fc block (BioLegend) and then stained with CD3 BV605, CD45RA PerCP-Cy5.5, Tbet PE, IFNγ AF488, IL-4 APC (BioLegend), CD4 PE-Cy7, cPARP AF700 (BD Biosciences), and CD8 Krome Orange (Beckman Coulter). For flow cytometry, 300,000 cells were acquired on Cytoflex (Beckman Coulter). Data were analyzed using Flowjo software. The percentage of CD4^+ T cells that were positive for IFNγ and IL 4 were reported.

The subject of series [4] is peripheral T cell lymphoma. As to the kind of experiment: Anti-tumor activity in human clinical trials (T cell lymphoma). It is filed as in vivo. The text has this:
Each lane represents a patient with the length indicating time on treatment. A treatment cycle is 21 days and then the cycle is repeated until the patient experiences tumor progression or unacceptable toxicity.

Setting [5] is: PTCL-NOS patient, within 8-15 days.

SMILES strings stand for the structures.

For `C=CC(=O)N1CCCN(C(=O)c2cc(Sc3cnc(NC(=O)C4CC4)s3)c(C)cc2OC)C[C@H]1C` [CPI-818], the “ITK activity after extensive dialysis” value in series [1] is listed as “kinase activity was not recovered”. For the same compound, the “ITK activity after extensive dialysis” value in series [1] (listed as CP-818) is “remained inhibited”. Moreover, the remaining activity at 1 µM in series [2] amounted to 99%. The “total T cell proliferation” value in series [3] (10 μM) was “abrogates total T cell proliferation”. Further, the “total number of cells and cell viability” value in series [3] (≥1 μM / high concentrations) is “reduced the total number of cells while maintaining cell viability”. Besides, in series [4] (100, 200, 400, 600 mg BID evaluated), the “dose with best anti-tumor response” value is given as “best response occurred at the dose of 200 mg BID”. For the same compound, in series [4] (Example 2, 200 mg BID), the “duration of complete remission” value turned out to be 25 months and the “response of patient with peripheral T-cell lymphoma NOS” value is “complete remission”. Also, the “response of patient with PTCL-NOS” value in series [4] (FIG. 23, cycle 17, after 1 year of treatment) is “complete response”. For the same compound, the “duration of complete response” value in series [4] (FIG. 23 patient) is listed as 19 months. Further, in series [4] (setting [5]), the “platelets (PLT) and lactate dehydrogenase (LDH)” value is reported as “improvement”; the “subcutaneous (SQ) tumor” value was “dramatic reduction”.
